Results on 43 compounds are retold here after US20210038559A1, “CANNABINOIDS AND DERIVATIVES FOR PROMOTING IMMUNOGENICITY OF TUMOR AND INFECTED CELLS” (priority 2018, published 2021).

Like-named read-outs stand apart in the source and are kept apart here.

For the experiment, the system named is MHC-I expression by COLO 205 cells. As to the kind of experiment: cells. It counts as cell-based, human. Conditions: for fold induction at 35 µM: Homo sapiens, COLO 205, 48 h, read-out: Induction Fold. Here is the method: A panel of synthetic cannabinoids (Cayman Chemical, #9002891) was tested for MHC class I-inducing capability in COLO 205 cells as described above. COLO 205 cells were treated with the compounds at a concentration of 35 μM and evaluated for cell surface MHC class I expression after 48 hours. Cells were harvested, stained with MHC-I mAb W6/32 (Thermo Fisher). MHC-I expression was determined by flow cytometry.

[1] abbreviates: MHC-I expression, COLO 205 cells, compounds at 35 μM, 48 hours, flow cytometry (W6/32).

On to `CCOc1ccc(Cc2nc3cc(C(=O)N(CC)CC)ccc3n2CC2CCCCC2)cc1` [Example 363, 1-(cyclohexylmethyl)-2-[(4-ethoxyphenyl)methyl]-N,N-diethyl-1H-benzimidazole-5-carboxamide], for which the fold induction at 35 µM under setting [1] is 0.92.

As for `CCCCCn1cc(C(=O)c2ccc(CC)c3ccccc23)c2ccccc21` [Example 180, (4-ethyl-1-naphthalenyl)(1-pentyl-1H-indol-3-yl)-methanone], the fold induction at 35 µM under setting [1] worked out at 1.93.

Turning to `CCOC(=O)[C@@H](NC(=O)c1nn(Cc2ccc(F)cc2)c2ccccc12)C(C)C` [Example 8, ethyl (1-(4-fluorobenzyl)-1H-indazole-3-carbonyl)-1-valinate], the “Induction Fold” value under setting [1] stood at 5.50 Fold.

With `CCCCCn1ccc(C(=O)c2cccc3ccccc23)c1` [Example 66, 1-naphthalenyl(1-pentyl-1H-pyrrol-3-yl)-methanone], the “Induction Fold” value turned out to be 2.75 Fold.

Consider `CCC(F)CCn1cc(C(=O)C2C(C)(C)C2(C)C)c2ccccc21` (stereo not shown) [Example 133, [1-(3-fluoropentyl)-1H-indol-3-yl] (2,2,3,3-tetramethylcyclopropyl)-methanone], for which the fold induction at 35 µM under setting [1] was determined as 2.23.

`CCCCCCC(C)(C)c1cc(O)c2c(c1)OC(C)(C)[C@@H]1CC=C(CO)C[C@@H]21` [Example 378, 3-(1,1′-dimethylheptyl)-6aR,7,10,10aR-tetrahydro-1-hydroxy-6,6-dimethyl-6H-dibenzo[b,d]pyran-9-methanol]: the fold induction at 35 µM under setting [1] came to 0.21.

Turning to `CCCCCCC(C)(C)c1ccc([C@@H]2C[C@@H](O)CC[C@H]2CCCO)c(O)c1` (relative stereo) [Example 375, rel-2-((1R,2R,5S)-5-hydroxy-2-(3-hydroxypropyl)cyclohexyl)-5-(2-methyloctan-2-yl)phenol], the fold induction at 35 µM under setting [1] was 0.33.

Turning to `O=C(NC12CC3CC(CC(C3)C1)C2)c1nn(Cc2ccc(F)cc2)c2ccccc12` [Example 117, N-((3s,5s,7s)-adamantan-1-yl)-1-(4-fluorobenzyl)-1H-indazole-3-carboxamide], the “Induction Fold” value under setting [1] is listed as 2.34 Fold.

As for `O=C(Oc1ccc2ccccc2c1)c1nn(-c2ccccc2F)c2ccccc12` [Example 332, naphthalen-2-yl 1-(2-fluorophenyl)-1H-indazole-3-carboxylate], the fold induction at 35 µM under setting [1] is 1.21.

As for `O=C(Oc1cccc2ncccc12)c1cn(CC2CCCCC2)c2ccccc12` [Example 206, quinolin-5-yl 1-(cyclohexylmethyl)-1H-indole-3-carboxylate], under setting [1], the fold induction at 35 µM turned out to be 1.86.

Regarding `CCCCCn1cc(C(=O)c2ccc(F)c3ccccc23)c2ccccc21` [Example 150, (4-fluoro-1-naphthalenyl)(1-pentyl-1H-indol-3-yl)-methanone], the fold induction at 35 µM under setting [1] was determined as 2.14.

On to `CC(C)(NC(=O)c1nn(CC2CCOCC2)c2ccccc12)c1ccccc1` [Example 322, N-(1-methyl-1-phenylethyl)-1-[(tetrahydro-2H-pyran-4-yl)methyl]-1H-indazole-3-carboxamide], for which the fold induction at 35 µM under setting [1] is 1.27.

With “1-naphthalenyl[5-(1-naphthalenyl)-1-pentyl-1H-pyrrol-3-yl]-methanone [Example 214]”, the “Induction Fold” value is reported as 1.80 Fold.

On to `O=C(c1ccc(F)c2ccccc12)c1cn(CCCCCF)c2ccccc12` [Example 112, (4-fluoro-1-naphthalenyl)[1-(5-fluoropentyl)-1H-indol-3-yl]-methanone], for which the fold induction at 35 µM under setting [1] stood at 2.37.

Consider `CCCCCn1cc(-c2nc(CN(CC)CC)cs2)c2ccccc21` [Example 366], for which, under setting [1], the “Induction Fold” value is listed as 0.89 Fold.

On to `O=C(Oc1cccc2ccccc12)c1cn(CCCCCF)c2ccccc12` [Example 257, naphthalen-1-yl 1-(5-fluoropentyl)-1H-indole-3-carboxylate], for which the fold induction at 35 µM under setting [1] was determined as 1.59.

As for `CCCCCn1cc(C(=O)c2c(C)ccc3ccccc23)c2ccccc21` [Example 25, (2-methylnaphthalen-1-yl)(1-pentyl-1H-indol-3-yl)methanone], the fold induction at 35 µM under setting [1] was 3.6.

Consider `CCCCCn1cc(C(=O)c2cccc3cc(Cl)ccc23)c2ccccc21` [Example 285, (6-chloronaphthalen-1-yl)(1-pentyl-1H-indol-3-yl)methanone], for which the fold induction at 35 µM under setting [1] was found to be 1.46.

Consider `CCCC(F)Cn1cc(C(=O)c2cccc3ccccc23)c2ccccc21` (stereo not shown) [Example 104, (1-(2-fluoropentyl)-1H-indol-3-yl)(naphthalen-1-yl)methanone], for which the fold induction at 35 µM under setting [1] was 2.41.

Consider `CC(C)C(C)n1cc(C(=O)c2ccc3ccccc3c2)c2ccccc21` (stereo not shown) [Example 342, (1-(3-methylbutan-2-yl)-1H-indol-3-yl)(naphthalen-2-yl)methanone], for which the fold induction at 35 µM under setting [1] was determined as 1.17.

Regarding `CC(C)CCn1cc(C(=O)c2ccc3ccccc3c2)c2ccccc21` [Example 251, (1-isopentyl-1H-indol-3-yl)(naphthalen-2-yl)methanone], the fold induction at 35 µM under setting [1] is 1.62.

For the compound `COC(=O)[C@@H](NC(=O)c1nn(CC2CCCCC2)c2ccccc12)C(C)C` [Example 14, N-[[1-(cyclohexylmethyl)-1H-indazol-3-yl]carbonyl]-L-valine, methyl ester], the fold induction at 35 µM under setting [1] was 4.2.

`O=C(Oc1cncc2ccccc12)c1cn(CCCCCF)c2ccccc12` [Example 19, isoquinolin-4-yl 1-(5-fluoropentyl)-1H-indole-3-carboxylate]: the fold induction at 35 µM under setting [1] came to 4.06.

`CCCCCn1cc(C(=O)Oc2ccc3cccnc3c2)c2ccccc21` [Example 18, quinolin-7-yl 1-pentyl-1H-indole-3-carboxylate]: the fold induction at 35 µM under setting [1] is 4.08.

Turning to `O=C(c1cn(CCCCCF)c2ccccc12)N1CCCC1` [Example 215, (1-(5-fluoropentyl)-1H-indol-3-yl)(pyrrolidin-1-yl)methanone], under setting [1], the fold induction at 35 µM amounted to 1.8.

On to `O=C(Nc1cccc2ccccc12)c1cn(Cc2ccc(F)cc2)c2ccccc12` [Example 330, 1-(4-fluorobenzyl)-N-(naphthalen-1-yl)-1H-indole-3-carboxamide], for which the fold induction at 35 µM under setting [1] came out at 1.23.

Regarding `CCCCCC(C)(C)c1ccc([C@H]2CCC[C@@H](O)C2)c(O)c1` (relative stereo) [Example 209, cis-5-(1,1-dimethylhexyl)-2-(3-hydroxycyclohexyl)-phenol], the fold induction at 35 µM under setting [1] was 1.84.

In the case of `O=C(Oc1cccc2ccccc12)c1cn(Cc2ccc(F)cc2)c2ccccc12` [Example 248, 1-[(4-fluorophenyl)methyl]-1H-indole-3-carboxylic acid, 1-naphthalenyl ester], the fold induction at 35 µM under setting [1] was 1.63.

Regarding `CCCCCn1nc(C(=O)N[C@H](C(N)=O)[C@@H](C)CC)c2ccccc21` (single isomer, unassigned) [Example 26], the fold induction at 35 µM under setting [1] came to 3.49.

Consider `CN1CCCCC(n2cc(C(=O)C34CC5CC(CC(C5)C3)C4)c3ccccc32)C1` (stereo not shown) [Example 93, (3,5,7)-adamantan-1-yl(1-(1-methylazepan-3-yl)-1H-indol-3-yl)methanone], for which, under setting [1], the “Induction Fold” value was determined as 2.46 Fold.

Take “(1-hexyl-5-phenyl-1H-pyrrol-3-yl)-1-naphthalenyl-methanone [Example 82]”: the “Induction Fold” value is 2.54 Fold.

In the case of `CCC(F)CCn1cc(C(=O)c2ccc(C)c3ccccc23)c2ccccc21` (stereo not shown) [Example 174, (1-(3-fluoropentyl)-1H-indol-3-yl)(4-methylnaphthalen-1-yl)methanone], under setting [1], the fold induction at 35 µM was found to be 1.96.

`CCCCCCC(C)(C)c1cc(O)c2c(c1)OC(C)(C)[C@H]1CC=C(CO)C[C@H]21` [Example 360, 3-(1,1-dimethylheptyl)-6aS,7,10,10aS-tetrahydro-1-hydroxy-6,6-dimethyl-6H-dibenzo[b,d]pyran-9-methanol]: the fold induction at 35 µM under setting [1] is 0.96.

Turning to `N#CCCCCn1cc(C(=O)c2cccc3ccccc23)c2ccccc21` [Example 55, 3-(1-naphthalenylcarbonyl)-1H-Indole-1-pentanenitrile], the fold induction at 35 µM under setting [1] is 2.92.

For `O=C(c1cccc2ccccc12)c1cn(Cc2ccc(F)cc2)c2ccccc12` [Example 220, (1-(4-fluorobenzyl)-1H-indol-3-yl)(naphthalen-1-yl)methanone], under setting [1], the fold induction at 35 µM is 1.77.

With `CC[C@H](C)[C@H](NC(=O)c1c2ccccc2nn1CCCCCF)C(N)=O` [Example 355, N-(1-amino-3S-methyl-1-oxopentan-2S-yl)-2-(5-fluoropentyl)-2H-indazole-3-carboxamide], the “Induction Fold” value under setting [1] was found to be 1.05 Fold.

Take `CCCCCn1cc(C(=O)Cc2ccccc2OC)c2ccccc21` [Example 106, 1-(1-pentyl-1H-indol-3-yl)-2-(2-methoxyphenyl)-ethanone]: under setting [1], the fold induction at 35 µM turned out to be 2.39.

`CCCCCn1cc(C(=O)c2cccc3ccccc23)c2ccccc21` [Example 71, (1-pentyl-1H-indol-3-yl)-1-naphthalenyl-methanone]: under setting [1], the “Induction Fold” value was 2.69 Fold.

Regarding `CCC(C)n1cc(C(=O)c2ccc3ccccc3c2)c2ccccc21` (stereo not shown) [Example 350, (1-(sec-butyl)-1H-indol-3-yl)(naphthalen-2-yl)-methanone], the fold induction at 35 µM under setting [1] worked out at 1.08.

With `CCCCCn1cc(C(=O)Nc2ccccc2)c2ccccc21` [Example 307, 1-pentyl-N-phenyl-1H-indole-3-carboxamide], the fold induction at 35 µM under setting [1] was determined as 1.38.

With “(1-hexyl-1H-pyrrol-3-yl)-1-naphthalenyl-methanone [Example 72]”, the “Induction Fold” value is 2.68 Fold.

Consider `CC(F)CCCn1nc(C(=O)NC(C(N)=O)C(C)C)c2ccccc21` (stereo not shown) [Example 293, N-(1-amino-3-methyl-1-oxobutan-2-yl)-1-(4-fluoropentyl)-1H-indazole-3-carboxamide], for which, under setting [1], the fold induction at 35 µM was found to be 1.43.

Regarding `CC(C)[C@H](NC(=O)c1cn(CC2CCCCC2)c2ccccc12)C(N)=O` [Example 96, (S)-N-(1-amino-3-methyl-1-oxobutan-2-yl)-1-(cyclohexylmethyl)-1H-indole-3-carboxamide], the fold induction at 35 µM under setting [1] came out at 2.44.
